Patent US20220096484A1, “METHODS AND COMPOSITIONS FOR TREATING CANCER BY TARGETING FATP2 AND MYELOID DERIVED SUPPRESSOR CELLS” (The Wistar Institute of Anatomy and Biology, priority 2019, published 2022)

Columns and labels:
[1] = system: PMN differentiated from HPCs; test: PMN generated from HPC in the presence of GM-CSF and arachidonic acid; assay type: cell-based, mouse
Description: Single cells suspensions from spleen and tumors were prepared as described above. Then cells were stained and sorted on BD FACS Aria BD (Biosciences). PMN-MDSC)(CD45^+ CD11b^+Ly6G^+Ly6C^lo and M-MDSC (CD45^+ CD11b^+Ly6G^−Ly6C^hi) were plated in U-bottom 96-well plates (3 replicates) in RPMI with 10% FBS and co-cultured at different ratios with splenocytes from Pmel or OT-1 transgenic mice in the presence of cognate peptides: OT-1 (SIINFEKL; 0.1 ng/ml), Pmel (EGSRNQDWL; 0.1 μg/ml). After 48 h, cells were incubated with [^3H]-thymidine (PerkinElmer) for 16-18 h. Proliferation was measured by using TopCount NXT instrument (PerkinElmer).
RNA was extracted using Total RNA Kit according to manufacturer's instructions. DNase digestion was performed cDNA was generated with High-Capacity cDNA Reverse Transcription Kit (Applied Biosystems, Foster City, Calif., USA). qRT-PCR was performed using Power SYBR Green PCR Master Mix (Applied Biosystems) in 96- or 384 well plates. Plates were read with ABI 7900 (Applied Biosystems).
Mouse neutrophils were generated from enriched bone marrow hematopoietic progenitor cells (HPCs) with 20 ng/ml of GM-CSF. Briefly, HPCs were isolated from mouse BM by using Lineage depletion kit (Miltenyi), according to manufacturer's instructions. Cells were seeded at 25000 cell/ml in 24 well plates and GM-CSF (20 ng/ml), 20% v/v TES or arachidonic acid (10 μM) were added at day 0 and day 3. At day 5, Ly6G positive neutrophils were isolated by using anti-Ly6G biotin (Miltenyi) and streptavidin beads (Miltenyi), according to manufacturer's instructions.
HPCs were isolated from mouse BM by using Lineage depletion kit (Miltenyi), according to manufacturer's instructions. HPC were resuspended in serum-free medium (SFM) containing lentiviral vectors followed by centrifugation of the plate at 1000 rpm for 20 min at 25° C. Fresh media supplemented with GM-CSF (20 ng/ml) was then added and cells were seeded at 25000 cell/ml in 24 well plates. At day 3, GM-CSF and 20% v/v TES were added to the culture. At day 5, cells were collected, stained with PE conjugated anti mouse Ly6G, APC conjugated anti mouse Ly6C and BV421 conjugated anti-mouse CD11b, and GFP^− and GFP^+Ly6G^+ cells were sorted on BD FACS Melody (BD Biosciences). GFP^− and GFP^+Ly6G^+ cells were seeded at 2.000.000 cells/ml in presence of GM-CSF and TES and incubated for further 24 hours. Pellets and supernatants were collected for further analysis. PGE2 concentration in supernatants was measured by using PGE2 ELISA KIT (Invitrogen), according to manufacturer's instructions.

[2] = system: pSTAT5 / FATP2 in human PMNs; test: Human PMN from healthy donors treated with GM-CSF (pSTAT5, FATP2); assay type: cell-based; details: human PMNs from blood of healthy donors
Description: FIG. 12A, Lipid accumulation (measured by BODIPY staining) in M-MDSCs isolated from the blood of patients with cancer or healthy individuals. Each circle indicates an individual. FIG. 12B, Amount of lipids (BODIPY staining) in M-MDSCs from blood and tumor tissue of patients with cancer. Each circle indicates an individual (n=5). FIG. 12C, RNA-seq analysis of genes involved in lipid accumulation in human LOX1^+ PMN-MDSCs and LOX1^− PMNs (n=4). FIG. 12D, PTGES expression in LOX1^+ and LOX1^− PMNs from blood of patients with cancer. Fold change compared with LOX1^− PMNs (n=3). FIG. 12E, SLC27A2 expression in M-MDSCs and monocytes isolated from blood of patients with cancer and healthy donors, respectively. Each circle indicates an individual (n=4-6). Data are mean±s.d. FIG. 12F, pSTAT5 by flow cytometry at different time points, in human PMNs isolated from the blood of healthy donors and treated with different amounts of GM-CSF. FIG. 12G, FATP2 in PMNs isolated from blood of healthy donors and treated with GM-CSF. Representative of three independent experiments. FIG. 12H, Content of total phosphatidylethanolamine (PE) and arachidonoyl-containing phosphatidylethanolamine (AA-PE) in PMN-MDSCs isolated from patients with lung cancer (n=5) or healthy donors (n=4). Each circle indicates an individual. Data are mean±s.d. *P<0.05, **P<0.01, ***P<0.001, ****P<0.0001, unpaired two-sided Student's t-test. […]

[3] = system: STAT5 / FATP2 in PMN; test: Mouse bone marrow PMN treated with GM-CSF (pSTAT5 flow cytometry, FATP2 Western blot); assay type: cell-based
Description: Cells were lysed in RIPA buffer (Sigma-Aldrich) in presence of protease inhibitor cocktail (Sigma-Aldrich), sonicated and stored at −80° C. Whole cell lysates were prepared and subjected to 10% SDS-PAGE and transferred to PVDF membrane. The membranes were probed overnight at 4° C. with the antibodies specific for FATP2 (SLC27A2) (ThermoFisher), ACTIN, GAPDH, STAT5 (Cell Signaling Technology). Membranes were washed and incubated for 1 h at room temperature with secondary antibody conjugated with peroxidase.
Slc27a2 promoter has a binding site for the transcription factor STAT5 (http://jaspar.genereg.net). STAT5 can be activated by GM-CSF, which plays a critical role in myelopoiesis and expansion of MDSC^23. To explore whether GM-CSF might control slc27a2 expression through STAT5 activation we treated PMN isolated from BM of tumor free mice with GM-CSF for 2 hrs. […] To confirm the role of STAT5 in controlling the expression of slc27a2 in PMN, we crossed Stat5″ mice with S100A8-cre mice to target the deletion of Stat5 to PMN. In the absence of Stat5 in PMN, the tumor growth was slower than in control mice (FIG. 11I). This was associated with lower expression of slc27a2 in PMN (FIG. 11J).

[4] = PMN differentiated from HPC in the presence of AA

Compound	expansion of PMN-MDSC ([1]; HPC with GM-CSF and AA (10 μM))	suppression of antigen specific T cell responses by the generated PMN ([1]; HPC with GM-CSF and AA (10 μM))	expression of nox2 [1, 4]	production of PGE2 [1, 4]	FATP2 [2]	pSTAT5 [2]	FATP2 protein ([3]; PMN from BM of tumor free mice, GM-CSF)	activation of STAT5 (pSTAT5) ([3]; PMN from BM of tumor free mice, GM-CSF for 2 hrs)	expression of FATP2 in Stat5 deficient PMN ([3]; Stat5 deficient PMN, GM-CSF)
CCCCC/C=C\C/C=C\C/C=C\C/C=C\CCCC(=O)O [AA, arachidonic acid]	favored the expansion of PMN-MDSC	suppressed antigen specific T cell responses	increased expression of nox2	higher production of PGE2	–	–	–	–	–
GM-CSF: cytokine that activates STAT5; plays a critical role in myelopoiesis and expansion of MDSC	–	–	–	–	up-regulated	up-regulated	up-regulation of FATP2	dose-dependent activation of STAT5	failed to increase the expression of FATP2
